Data as given in patent publication US20260092057A1, “BCL-XL/BCL-2 DEGRADERS AND USES THEREOF” (Kymera Therapeutics, Inc., priority 2022, published 2026).

Experiments:
Assay type in all cases: cell-based
[1] = system: MOLT-4 cells; experiment: CTG (CellTiter-Glo) cell viability assay, MOLT-4; settings: Homo sapiens, MOLT-4, 72 h, MOLT-4, 3 day; read-out: CTG Cell Viability Assay - MOLT-4 3 day: Average external-IC50
Summary of the method: (§1)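 Viability read by CellTiter-Glo luminescence after 3 days' compound exposure at 37 °C under 5% CO2, with 10,000 cells per well. Dosing was nine 1:3 dilutions starting at 10 µM, DMSO normalized to 0.2%; IC50 values come from three-parameter logistic curve fitting.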

[2] = molecular target: T1, BCL-XL (Homo sapiens, UniProt Q07817); experiment: BCL-XL degradation assay in MOLT-4 cells (ELISA, 6 h); settings: for DC50: read-out: Bcl-xL ELISA in MOLT-4 degradation 6 h: External Abs-DC50
T1 construct: BCL-XL degradation results in MOLT-4 cells for compounds of the invention; endogenous in cells; host or cells: MOLT-4
T1 sequence (Q07817 whole entry): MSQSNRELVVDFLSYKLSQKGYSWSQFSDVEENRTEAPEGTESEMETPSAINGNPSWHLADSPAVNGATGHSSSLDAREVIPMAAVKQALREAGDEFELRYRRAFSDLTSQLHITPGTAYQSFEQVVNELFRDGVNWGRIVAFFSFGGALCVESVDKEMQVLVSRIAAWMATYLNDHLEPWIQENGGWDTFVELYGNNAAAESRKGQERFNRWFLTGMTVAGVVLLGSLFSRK

[3] = system: Caki-2 cells; experiment: CTG (CellTiter-Glo) cell viability assay, Caki-2; settings: Homo sapiens, CAKI-2, 72 h, Caki-2, 3-day; read-out: CTG Chempartner/PHA- Caki-2 3-day: Average external-IC50
Summary of the method: as §1

Row | Compound | IC50 [1] [nM] | Dmax [2] [%] | DC50 [2] [nM] | IC50 [3] [nM]
1 | Cc1ncsc1-c1ccc([C@H](C)NC(=O)[C@@H]2C[C@@H](O)CN2C(=O)[C@@H](NC(=O)CCCCCN(C)CCCNc2ccc(S(=O)(=O)NC(=O)c3ccc(N4CCC([C@H](O)c5ccccc5-c5ccc(Cl)cc5)CC4)cc3Oc3cnc4[nH]ccc4c3)cc2S(=O)(=O)C(F)(F)F)C(C)(C)C)cc1 [I-67] | > 3000 | 50 to 75 | 500 to 1000 | > 30000
2 | Cc1ncsc1-c1ccc([C@H](C)NC(=O)[C@@H]2C[C@@H](O)CN2C(=O)[C@@H](NC(=O)CCCCCCC(=O)N2CCN(CCCNc3ccc(S(=O)(=O)NC(=O)c4ccc(N5CCN(CC6=C(c7ccc(Cl)cc7)CC(C)(C)CC6)CC5)cc4Oc4cnc5[nH]ccc5c4)cc3S(=O)(=O)C(F)(F)F)CC2)C(C)(C)C)cc1 [I-81] | < 100 | > 75 | 10 to 100 | > 30000

The next lines start with results.

Row | IC50 [1] [nM] | Dmax [2] [%] | DC50 [2] [nM] | Compound | IC50 [3] [nM]
3 | 100 to 1000 | > 75 | 10 to 100 | Cc1ncsc1-c1ccc([C@H](C)NC(=O)[C@@H]2C[C@@H](O)CN2C(=O)[C@@H](NC(=O)CCCCCCC(=O)N2CCN(Cc3ccc(-c4ccc(Cl)cc4)c([C@H](O)C4CCN(c5ccc(C(=O)NS(=O)(=O)c6ccc(N[C@H](CCN(C)CCO)CSc7ccccc7)c(S(=O)(=O)C(F)(F)F)c6)cc5)CC4)c3)CC2)C(C)(C)C)cc1 [I-25] | > 30000
4 | 100 to 1000 | < 50 | 500 to 1000 | Cc1ncsc1-c1ccc([C@H](C)NC(=O)[C@@H]2C[C@@H](O)CN2C(=O)[C@@H](NC(=O)CCCCCC(=O)N2CCN(CCCNc3ccc(S(=O)(=O)NC(=O)c4ccc(N5CCN(CC6=C(c7ccc(Cl)cc7)CC(C)(C)CC6)CC5Oc5cnc6[nH]ccc6c5)cc4)cc3S(=O)(=O)C(F)(F)F)CC2)C(C)(C)C)cc1 (some centres unmarked) [I-133] | > 30000
5 | > 3000 | < 50 | 500 to 1000 | Cc1ncsc1-c1ccc([C@H](C)NC(=O)[C@@H]2C[C@@H](O)CN2C(=O)[C@@H](NC(=O)CCCCCCN(C)CC[C@H](CSc2ccccc2)Nc2ccc(S(=O)(=O)NC(=O)c3ccc(N4CCN(Cc5ccccc5-c5ccc(Cl)cc5)CC4)cc3)cc2[N+](=O)[O-])C(C)(C)C)cc1 [I-14] | > 30000
